{
  "source": "patent US7388003B2",
  "about": "“Δ15-D-Homosteroids with androgenic action” (Bayer Schering Pharma AG, priority 2003, dated 2008)",
  "key": {"[1]": {"molecular_target": "T1, Androgen Receptor (Homo sapiens, UniProt P10275)", "T1 sequence (P10275 1-920)": "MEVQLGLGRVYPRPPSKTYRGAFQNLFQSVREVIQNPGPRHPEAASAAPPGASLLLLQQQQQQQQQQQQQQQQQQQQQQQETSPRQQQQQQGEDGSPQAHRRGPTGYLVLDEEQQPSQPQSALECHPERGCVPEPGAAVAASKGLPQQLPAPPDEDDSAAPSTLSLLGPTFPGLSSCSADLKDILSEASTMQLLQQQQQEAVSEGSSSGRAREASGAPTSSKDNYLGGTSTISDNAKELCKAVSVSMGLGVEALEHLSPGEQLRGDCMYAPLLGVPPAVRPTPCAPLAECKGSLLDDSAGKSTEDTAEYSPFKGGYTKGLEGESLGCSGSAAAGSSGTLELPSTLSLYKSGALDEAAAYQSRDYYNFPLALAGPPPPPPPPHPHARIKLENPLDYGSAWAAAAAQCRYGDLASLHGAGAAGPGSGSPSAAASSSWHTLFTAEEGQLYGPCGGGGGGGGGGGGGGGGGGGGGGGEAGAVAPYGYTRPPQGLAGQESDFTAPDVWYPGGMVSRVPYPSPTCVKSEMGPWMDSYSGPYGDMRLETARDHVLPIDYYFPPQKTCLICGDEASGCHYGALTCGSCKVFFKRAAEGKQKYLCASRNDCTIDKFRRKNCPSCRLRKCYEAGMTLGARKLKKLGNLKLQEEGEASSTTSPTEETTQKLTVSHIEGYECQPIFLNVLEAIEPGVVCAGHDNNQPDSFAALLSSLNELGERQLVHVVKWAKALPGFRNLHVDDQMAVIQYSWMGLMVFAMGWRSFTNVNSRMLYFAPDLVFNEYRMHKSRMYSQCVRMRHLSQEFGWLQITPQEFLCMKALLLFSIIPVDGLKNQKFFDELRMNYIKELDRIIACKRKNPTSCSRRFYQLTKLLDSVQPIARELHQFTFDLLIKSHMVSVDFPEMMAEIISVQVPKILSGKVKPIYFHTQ", "experiment": "Relative binding affinities (RBA) to the androgen receptor compared to testosterone and methyltrienolone", "conditions": "relative binding affinity to the androgen receptor; R 1881 (Methyltrienolone) = 100"}, "[2]": {"molecular_target": "T1, Androgen Receptor", "experiment": "Receptor binding affinity to the androgen receptor (reference DHT=100%)"}},
  "data": [
    {"compound": "CC12CCC3C4CCC(=O)C=C4CCC3C1C=CCC2O", "note": "[Example 1, 17aβ-Hydroxy-D-homoestra-4,15-dien-3-one]", "values": [
      {"measurement": "RBA %", "setting": "[1]", "result": 25, "unit": "%"}
    ]},
    {"compound": "CC12CCC(=O)C=C1CCC1C2CCC2(C)C(O)CC=CC12", "note": "[Example 2, 17aβ-Hydroxy-D-homoandrost-4,15-dien-3-one]", "values": [
      {"measurement": "RBA %", "setting": "[1]", "result": 12, "unit": "%"}
    ]},
    {"compound": "CC1CC2=CC(=O)CCC2C2CCC3(C)C(O)C=CCC3C12", "note": "[17aβ-Hydroxy-7α-methyl-D-homoestra-4,16-dien-3-one]", "values": [
      {"measurement": "receptor binding affinity to the androgen receptor", "setting": "[2]", "result": 2, "unit": "%"}
    ]},
    {"compound": "C[C@]1(O)CC[C@H]2[C@@H]3CCC4=CC(=O)CCC4=C3C=C[C@@]21C", "note": "[R 1881 (Methyltrienolone), Methyltrienolone]", "values": [
      {"measurement": "RBA %", "setting": "[1]", "result": 100, "unit": "%"}
    ]}
  ]
}
